According to patent US20110070269A1, “LIPOPOLYSACCHARIDE ISOLATED FROM PYRULARIA TISSUE AND/OR PYRULARIA-ASSOCIATED BACTERIA AND USES THEREOF” (THERAPRO TECHNOLOGIES, INC., priority 2009, published 2011):

Columns and labels:
human bone marrow cells = assay: Activation of human bone marrow (Mac-1 x CD14 flow cytometry); assay type: cell-based; conditions: 5 ng/mL, fresh marrow from normal donor
Method: Human bone marrow was provided by the Bone Marrow Transplantation Unit, University of Utah. Experiments were initiated upon obtaining fresh marrow from normal donors. Whole marrow was treated as described above for murine marrow samples. Following incubation for 24 to 36 hours with PyEx or other agents as described, cells were stained with anti-Mac-1-FITC×anti-CD14-PE. Cells were analyzed using a Coulter EPICS-XL™ flow cytometer (Beckman-Coulter, Fullerton, Calif.). Activated populations were identified by positive staining with Mac-1×CD14 (designated Mac-1^+, CD14^+).

Balb/C mice [1] = assay: Prevention of drug-induced (melphalan) toxic death; assay type: in vivo, mouse; conditions: melphalan 100 mg/kg i.p. alone
Method: The effect of PyEx upon myelocyte stimulation was also observed in vivo as prevention of drug-induced myelosuppression. […] A separate group received melphalan (100 mg/kg, i.p.) and PyEx-1 (10 μg/mouse, subcutaneously). PyEx-1 was given immediately after or as late as 18 hours after melphalan administration, and every 48 hours thereafter.

bone marrow cells = assay: Bone marrow cell viability (propidium iodide exclusion); assay type: cell-based; conditions: mouse, 3 mM
Method: Cells (200 μL, prepared as described above) were collected after gentle trituration to resuspend cells. Each aliquot was diluted with 1 mL PBS, centrifuged to pellet the cells, and the supernatant liquid was removed. The washed cells were sequentially stained in the dark at 4° C. for 15 minutes with anti-CD16/32 to prevent non-specific labeling, then for 45 minutes with either anti-Mac-1-FITC×anti-Mac-1-PE or with Gr-1-FITC×Mac-1-PE. Cells were washed once at 4° C. with 1 mL of PBS and then resuspended in 1 mL of PBS. Human cells were labeled with anti-Mac-1 as above or with anti-Mac-1-FITC×anti-CD14. A Coulter EPICS-XL™ flow cytometer was used to enumerate dual, positively-staining control sub-populations and detection of nascent stimulated sub-populations. Activated sub-populations, which labeled with more intensity along the y-axis in Gr-I-FITC×Mac-1-PE, were designated as Mac-1^+hi. Control unactivated cells that also stained positively in both dimensions were designated, Mac-1^+lo. Dead cells were eliminated from analysis by prior staining with propidium iodide. Approximately 15-20×10^3 cells were counted for each analysis. Percent of cells activated was determined as:
Over 15×10^3 cells were analyzed for each sample. Bone marrow cell viability among all samples including the untreated control was 70-76% as determined by propidium iodide exclusion.

murine bone marrow cells = assay: Bone marrow activation assay (flow cytometry, percent of cells activated); assay type: cell-based, mouse; conditions: 3 mM
Method: Bone marrow was flushed from the femurs of Balb/C mice with RPMI medium. Cells were collected by centrifugation and the pellet treated with 1 mL of red cell lysis buffer (as described above) for five minutes at 25° C., followed by dilution with 12 mL of RPMI media. Cells were washed by two cycles of centrifugation and resuspension in RPMI. On the final wash, cells were counted using a hemocytometer and the final pellet was resuspended to 4×10^6 cells/mL with RPMI media for use in activation assays, which were quantitated by flow cytometric analysis (described below).
Cells (200 μL, prepared as described above) were collected after gentle trituration to resuspend cells. Each aliquot was diluted with 1 mL PBS, centrifuged to pellet the cells, and the supernatant liquid was removed. The washed cells were sequentially stained in the dark at 4° C. for 15 minutes with anti-CD16/32 to prevent non-specific labeling, then for 45 minutes with either anti-Mac-1-FITC×anti-Mac-1-PE or with Gr-1-FITC×Mac-1-PE. Cells were washed once at 4° C. with 1 mL of PBS and then resuspended in 1 mL of PBS. Human cells were labeled with anti-Mac-1 as above or with anti-Mac-1-FITC×anti-CD14. […] Approximately 15-20×10^3 cells were counted for each analysis. Percent of cells activated was determined as: […]

[2] = Physical analysis: stability of the immunostimulatory/mitogenic activity; assay type: physicochemical; conditions: proteinase K 50 μg/ml, 10 mM Tris pH 8.0, 10 mM EDTA, 0.5% SDS, 56° C., 30 minutes
Method: A mitogenic assay was used as a measure of immunostimulation. For the mitogen assay, isolated cells were diluted to 1.5×10^6 cells/mL. Aliquots of cells (200 μL/well) were incubated in sterile 96-well plates for 24 to 48 hours prior to the addition of 1 μCi/well of [^3H]thymidine. Radiolabeled DNA was collected on glass fiber filters by means of an Inotech cell harvester (Rockville, Md.) and associated radioactivity was determined by means of an Inotech radiometric instrument or by scintillation counting of individual filters. TLF-D, a proprietary reagent, was utilized at 10 μg/ml to amplify the mitogenic activity of Pyrularia extract (PyEx) in a synergistic fashion.

Balb/C mice [3] = assay: In vivo neutropenia model (sub-lethal cyclophosphamide); set-up: species or system mouse; conditions: day five
Method: Eighteen to twenty-four hours later (day 1), control mice received an injection of saline and the PyEx group received a single dose of PyEx (20 μg/mouse). Mice were bled sequentially via the retro-orbital sinus or tail vein at various times thereafter. Blood was collected in heparinized capillary tubes.
For determination of total versus white cells, blood was diluted into Isoton II (Beckman-Coulter, Fullerton, Calif.). Total cells and white cells were counted using a Model ZM Coulter counter (Beckman-Coulter, Fullerton, Calif.). White cell counts were determined following treatment of whole blood with a RBC lytic reagent (Zap-Oglobin, Beckman-Coulter, Fullerton, Calif.). Blood granulocytes and myelocytes were quantitated by means of an EPICS-XL™ flow cytometry after lysis of red cells.
To more clearly determine what populations of cells were stimulated by treatment with PyEx, in a similar experiment blood and bone marrow cells were collected and analyzed for total blood granulocytes and myelocytes. […] PyEx-1 (20 μg/mouse) was given to mice 24 hours after administration of CP. Blood from PyEx-1 treated experimental and saline treated control mice was collected with heparinized capillary tubes five days after CP administration. Following lysis of red cells, the remaining cells were analyzed by means of an EPICS-XL™ flow cytometer (Beckman-Coulter, Fullerton, Calif.). […]

rhGM-CSF: Recombinant human granulocyte macrophage-colony stimulating factor
activated sub-population (Mac-1+, CD14+), % of total cells (human bone marrow cells): 9%

N[C@@H](Cc1ccc(N(CCCl)CCCl)cc1)C(=O)O [Melphalan, melphalan]
Average time of death (Balb/C mice [1]): day 7
Drug related deaths/# in group (Balb/C mice [1]): 3/6
Average time of death (Balb/C mice [1]; listed as melphalan): eight

CC(=O)CCCCn1c(=O)c2c(ncn2C)n(C)c1=O [pentoxifylline]
Viability (bone marrow cells): 61.5%
Activation (murine bone marrow cells): 7.54%

concanavalin A
effect of proteinase K treatment on mitogenic activity [2]: completely inactivate

O=P1(N(CCCl)CCCl)NCCCO1 (stereo not drawn) [Cyclophosphamide]
total WBC restoration, % of the difference between the nadir value and the control value (Balb/C mice [3]; CP 200 mg/kg alone): 45%
Percentage of Granulocytes in Control (Balb/C mice [3]; cyclophosphamide 200 mg/kg alone, blood): 1%
